Laboratory results published in patent US6583156B1 (Vernalis Research Limited, priority 1998, dated 2003).
Counter-ions that a name gives are not always drawn.

Experiments:
[1] = molecular target: human adenosine A2A receptors (Homo sapiens, UniProt P29274); experiment: Binding affinities at hA2A receptors, displacement of [3H]-CGS 21680; conditions: in vitro binding, radioligand [3H]-CGS 21680
Description: The compounds were examined in an assay measuring in vitro binding to human adenosine A2A receptors by determining the displacement of the adenosine A2A receptor selective radioligand [^3H]-CGS 21680 using standard techniques.

[2] = tested on: haloperidol-induced hypolocomotion; experiment: Haloperidol-induced hypolocomotion model; type: in vivo; conditions: mice, 10 mg/kg intraperitoneally, haloperidol 0.2 mg/kg
Description: This approach is also considered a valid method for screening drugs with potential antiparkinsonian effects. Thus, the ability of novel adenosine antagonists to block haloperidol-induced deficits in locomotor activity in mice can be used to assess both in vivo and potential antiparkinsonian efficacy.
Female TO mice (25-30 g) obtained from TUCK, UK, are used for all experiments. Animals are housed in groups of 8 [cage size−40 (width)×40 (length)×20 (height)cm] under 12 hr light/dark cycle (lights on 08:00 hr), in a temperature (20±2° C.) and humidity (55±15%) controlled environment. Animals have free access to food and water, and are allowed at least 7 days to acclimatize after delivery before experimental use.
Liquid injectable haloperidol (1 ml Serenance ampoules from Baker Norton, Harlow, Essex, each containing haloperidol BP 5 mg, batch # P424) are diluted to a final concentration of 0.02 mg/ml using saline. Test compounds are typically prepared as aqueous suspensions in 8% Tween. All compounds are administered intraperitoneally in a volume of 10 ml/kg.
1.5 hours before testing, mice are administered 0.2 mg/kg haloperidol, a dose that reduces baseline locomotor activity by at least 50%. […] Horizontal locomotor activity is determined by placing the cages within a frame containing a 3×6 array of photocells linked to a computer, which tabulates beam breaks. […]

[3] = tested on: catalepsy; conditions: cited from earlier work
[4] = cited from earlier work

human adenosine A2A receptors, sequence (P29274 whole entry): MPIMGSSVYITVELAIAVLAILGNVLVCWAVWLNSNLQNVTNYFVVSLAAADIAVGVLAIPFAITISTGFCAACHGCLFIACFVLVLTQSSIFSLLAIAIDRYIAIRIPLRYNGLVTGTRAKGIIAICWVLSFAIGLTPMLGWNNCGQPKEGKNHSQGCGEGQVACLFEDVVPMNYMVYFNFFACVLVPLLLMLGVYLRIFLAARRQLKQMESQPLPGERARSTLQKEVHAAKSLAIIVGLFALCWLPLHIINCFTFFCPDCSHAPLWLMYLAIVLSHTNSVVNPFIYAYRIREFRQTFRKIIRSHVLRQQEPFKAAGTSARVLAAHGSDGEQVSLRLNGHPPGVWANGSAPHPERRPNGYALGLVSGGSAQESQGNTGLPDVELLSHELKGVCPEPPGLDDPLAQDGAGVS

Structure (SMILES) | Ki [1] [nM] | melting point | further results
OC1(c2cc(C(F)(F)F)nc3c(C(F)(F)F)cccc23)CCc2ccccc21 (stereo not shown) [Example 10, 1-(2,8-Bis(tnfluoromethyl)-4-quinolinyl)-1-indanol] | 1750 | – | –
OC1(c2cc(C(F)(F)F)nc3c(C(F)(F)F)cccc23)CCCc2ccccc21 (stereo not shown) [Example 11, 1-(2,8-Bis(trifluoromethyl)-4-quinolinyl)-1,2,3,4-tetrabydro-1-naphthol] | 1360 | 128.8 to 129.4 °C | –
OC(c1ccccc1Cl)c1cc(C(F)(F)F)nc2c(C(F)(F)F)cccc12 (stereo not drawn) [Example 18, 2,8-Bis(trifluoromethyl)-α-(2-chlorophenyl)-4-quinolinemethanol] | 1190 | – | –
Cc1cccc2c(C(O)c3ccccc3)cc(C(F)(F)F)nc12 (stereo not drawn) [Example 26, 8-Methyl-α-phenyl-2-trifluoromethyl-4-quinolinemethanol] | 1110 | – | –
COc1ccccc1C(O)c1cc(C(F)(F)F)nc2c(C(F)(F)F)cccc12 (stereo not shown) [Example 23] | 701 | 132 to 134 °C | –
Oc1cc(C(O)C2CCCCC2)c2ccccc2n1 (stereo not drawn) [Example 86, α-Cyclohexyl-2-hydroxy-4-quinolinemethanol] | – | > 250 °C | reversal of haloperidol-induced hypolocomotion [2]: significantly reversed
OC(c1ccco1)c1cc(C(F)(F)F)nc2c(C(F)(F)F)cccc12 (stereo not drawn) [Example 4, 2,8-Bis(trifluoromethyl)-α-(2-furyl)-4-quinolinemethanol] | 1120 | – | –
OC(c1cccs1)c1cc(C(F)(F)F)nc2c(C(F)(F)F)cccc12 (stereo not drawn) [Example 2, 2,8-Bis(trifluoromethyl)-α-(2-thienyl)-4-quinolinemethanol] | 1550 | – | –
OC(c1c(Cl)cccc1Cl)c1cc(C(F)(F)F)nc2c(C(F)(F)F)cccc12 (stereo not drawn) [Example 20, 2,8-Bis(trifluoromethyl)-α-(2,6-dichlorophenyl)-4-quinolinemethanol] | 649 | 151.2 to 151.7 °C | –
OC(c1ccccc1Br)c1cc(C(F)(F)F)nc2c(C(F)(F)F)cccc12 (stereo not drawn) [Example 21, 2,8-Bis(trifluoromethyl)-α-(2-bromophenyl)-4-quinolinemethanol] | 743 | 147 to 149 °C | –
OC(c1ccccc1F)c1cc(C(F)(F)F)nc2c(C(F)(F)F)cccc12 (stereo not drawn) [Example 22, 2,8-Bis(trifluoromethyl)-α-(2-fluorophenyl)-4-quinolinemethanol] | 1920 | 119.5 to 120.8 °C | –
OC(c1ccsc1)c1cc(C(F)(F)F)nc2c(C(F)(F)F)cccc12 (stereo not drawn) [Example 3, 2,8-Bis(trifluoromethyl)-α-(3-thienyl)-4-quinolinemethanol] | 954 | – | –
CCc1cccc2c(C(O)c3ccsc3)cc(C(F)(F)F)nc12 (stereo not drawn) [Example 32, 8-Ethyl-α-(3-thienyl)-2-trifluoromethyl-4-quinolinemethanol] | 1070 | – | –
Cc1cccc2c(C(O)c3ccccc3Cl)cc(C(F)(F)F)nc12 (stereo not drawn) [Example 27, α-(2-Chlorophenyl)-8-methyl-2-trinfluoromethyl-4-quinolinemethanol] | 1130 | – | –
Cc1cccc2c(C(O)c3ccsc3)cc(C(F)(F)F)nc12 (stereo not drawn) [Example 28, 8-Methyl-α-(3-thienyl)-2-trifluoromethyl-4-quinolinemethanol] | 574 | 113 to 114 °C | –
CCCn1c(=O)c2c(nc(/C=C/c3ccc(OC)c(OC)c3)n2C)n(CCC)c1=O [KF 17837, (E)-8-(3,4-dimethoxystyryl)-1,3-dipropyl-7-methylxanthine] | – | – | anticataleptic effects of a subthreshold dose of L-DOPA plus benserazide ([3]; in vivo): potentiated; catalepsy induced by haloperidol and reserpine ([3]; in vivo): reduced; cataleptic responses induced by intracerebroventricular CGS 21680 ([3]; oral administration): significantly ameliorated
O=[N+]([O-])c1ccccc1C(O)c1cc(C(F)(F)F)nc2c(C(F)(F)F)cccc12 (stereo not drawn) [Example 19, 2,8-Bis(trifluoromethyl)-α-(2-nitrophenyl)-4-quinolinemethanol] | 1740 | – | –

Structure (SMILES) | Ki [1] [nM] | melting point | further results
CC(O)(c1cc2ccccc2o1)c1cc(C(F)(F)F)nc2c(C(F)(F)F)cccc12 (stereo not shown) [Example 51] | 1520 | – | –
Cc1cccc2c(C(O)C3CCCCC3)cc(C(F)(F)F)nc12 (stereo not drawn) [Example 29, α-Cyclohexyl-8-methyl-2-trifluoromethy-4-quinolinemethanol] | 965 | – | –
OC(c1ccccc1)c1cc(C(F)(F)F)nc2c(C(F)(F)F)cccc12 (stereo not drawn) [Example 1, 2,8-Bis(trinfluoromethyl)-α-phenyl-4-quinolinemethanol] | 1700 | 151 to 152 °C | –
Oc1ccc(C(O)c2cc(C(F)(F)F)nc3c(C(F)(F)F)cccc23)cc1 (stereo not drawn) [Example 74, 2,8-Bis(trifluoromethyl)-α-(4-hydroxyphenyl)-4-quinolinemethanol] | 1630 | – | –
OC(c1ccoc1)c1cc(C(F)(F)F)nc2c(C(F)(F)F)cccc12 (stereo not drawn) [Example 5, 2,8-Bis(trifluoromethyl)-α-(3-furyl)-4-quinolinemethanol] | 1030 | – | –
OC1Cc2ccccc2C1c1cc(C(F)(F)F)nc2c(C(F)(F)F)cccc12 (stereo not shown) [Example 12, 1-(2,8-Bis(trifluorometbyl)-4-quinolinyl)-2-indanol] | 1900 | – | –
CCc1cccc2c(C(O)c3ccccc3)cc(C(F)(F)F)nc12 (stereo not drawn) [Example 31, 8-Ethyl-α-phenyl-2-trifluoromethy-4-quinolinemethanol] | 1770 | 102 to 104 °C | –
OC(c1cccs1)c1ccnc2ccccc12 (stereo not drawn) (as salt: salt) [Example 49, α-(2-Thienyl)-4-quinolinemethanol] | – | 173 °C (dec.) | –
OC(c1cc(C(F)(F)F)nc2c(C(F)(F)F)cccc12)C1CCCCC1 (stereo not drawn) [Example 7, 2,8-Bis(trifluoromethyl)-α-clohexyl-4-quinolinemethanol] | 852 | – | –
OC(c1ccsc1)c1cc(C(F)(F)F)nc2c(Cl)cccc12 (stereo not drawn) [Example 47, 8-Chloro-α-(3-thienyl)-2-trifluoromethyl-4-quinolinemethanol] | 1070 | – | –
Cc1cc(C(O)C2CCCCC2)c2cccc(C)c2n1 (stereo not drawn) [Example 54, α-Cyclohexyl-2,8-dimethyl-4-quinolinemethanol] | – | 155 to 157 °C | –
Cn1c(=O)c2[nH]cnc2n(C)c1=O [theophylline, 1,3-dimethylxanthine] | – | – | mean objective disability scores ([4]; 15 Parkinsonian patients, up to 12 weeks, 150 mg/day): significant improvements; serum theophylline levels ([4]; slow release oral preparation 150 mg/day, after one week, Parkinsonian patients): 4.44 mg/L
Cc1c(C(F)(F)F)nc2c(C(F)(F)F)cccc2c1C(O)c1cccs1 (stereo not drawn) [Example 16, 2,8-Bis(trifluoromethyl)-3-methyl-α-(2-thienyl)-4-quinolinemethanol] | 1790 | 125.1 to 125.8 °C | –
OC(c1ccsc1)c1cc(-c2ccccc2)nc2ccccc12 (stereo not drawn) [Example 41, 2-Phenyl-α-(3-thienyl)-4-quinolinemethanol] | – | 158 to 159 °C | –
OC(Cc1cc(C(F)(F)F)nc2c(C(F)(F)F)cccc12)c1cc2ccccc2o1 (stereo not drawn) [Example 51, α-(2-Benzofuranyl)-2,8-bis(trifluoromethyl)-4-quinolineethanol] | – | 123 to 124 °C | –
Nc1ccccc1C(O)c1cc(C(F)(F)F)nc2c(C(F)(F)F)cccc12 (stereo not drawn) [Example 76, α-(2-Aminophenyl)-2,8-bis(trifluoromethyl)-4-quinolinemethanol] | – | 145.9 to 146.2 °C | –
